{"source": "patent US20230293699A1", "about": "“USE OF A BORON CLUSTER AS TRANSMEMBRANE CARRIER” (CONSTRUCTOR UNIVERSITY BREMEN GGMBH, priority 2020, published 2023)", "key": {"[1]": {"experiment": "Transport of a bioactive molecule through a membrane by fused, multinuclear and iodinated clusters", "excerpt": "Also fused boron clusters and multinuclear boron clusters were successfully used as transporters for a bioactive molecule through a membrane."}, "[2]": {"tested_on": "Escherichia coli Top10 strain", "experiment": "E. coli Top10 viability with kanamycin A and B1", "format": "cell-based", "description": "Bar graphs (left) and time course (right) of E. coli Top10 viability in the presence of different concentrations of kanamycin monosulfate (0, 2500, 3000 or 3500 nM) and B1 (0, 500, 750 or 1000 μM) in LB broth at 37° C.; error bars (shown on the right) refer to the standard deviation (n=3; V (%): E. coli Top10 viability, [KA] […]\nFor kanamycin A, effective passage through the cell membrane into the cytosol is essential to reach its intracellular targets. […] In the absence of the cluster, E. coli retained viability (60%), which disappeared almost completely (<5%) in the presence of the antibiotics carrier (FIG. 5). The enhanced antibiotic activity is attributed to the boron cluster's carrier potential as all other factors were left the same."}, "[3]": {"experiment": "HPTS/DPX vesicle transport assay", "format": "biochemical", "settings": "for transport of positive, zwitterionic and neutral cargo into vesicles: cargo: singly charged, neutral biomolecules, vitamins, antibiotics, neuromuscular blocking agents, proteins; for transport of heptaarginine across the lipid membrane of the vesicles: cargo heptaarginine (H-Trp-Arg7-OH), HPTS fluorescence increase", "excerpt": "A: Heptaarginine, B: Heptalysine, C: Protamine, D: Acethylcholine, E: Pancuronium, F: Vecuronium, G: Vitamin B1, H: Ranitidin, I: Tryptophan, J: Ampicilin, K: Phenylalanine, L: Phalloidin, M: Glutamic acid, and N: Bovine albumin. +: positively charged cargos, +/−: zwitterionic cargos, ©: neutral cargo, and −: negatively charged cargos;\nA hydrophilic heptaarginine peptide (H-Trp-Arg7-OH) which is unable to spontaneously translocate across neutral phosphocholine lipid vesicles in the absence of counterion activators was used as prototype for cationic cell-penetrating molecular scaffolds (peptides and polymers). The capability of boron clusters to activate the transport of the heptaarginine peptide (H-Trp-Arg7-OH) was investigated first in large unilamellar vesicles (LUVs). The HPTS/DPX assay, that uses 8-hydroxypyrene-1,3,6-trisulfonate and p-xylene-bis-pyridinium, was implemented to monitor peptide-transport activation by the clusters. This assay not only reports on the potential of a synthetic carrier to transport the positively charged peptide into a vesicle, but also to shuttle the cationic quencher DPX to the outside.\nTransport can accordingly be monitored, and the activator efficacy quantified, by a time-resolved fluorescence increase at different concentrations of the carrier.\nHTPS emission was monitored during the sequential addition of the globular cluster carrier and peptide cargo; a strong detergent (Triton® X-100) was added at the end to affect vesicle lysis and complete dye release that allowed a normalization of the fluorescence intensity data.\nThis was validated in vesicle transport experiments, which included targets which have not been previously accessible to other non-covalent synthetic carriers or counterion activators. The targets included singly charged, zwitterionic, and neutral biomolecules (such as acetylcholine and amino acids), vitamins, antibiotics, neuromuscular blocking agents and proteins."}, "[4]": {"molecular_target": "T1, Cereblon E3 Ligase (Homo sapiens, UniProt Q96SW2)", "T1 construct": "expressed in transfected cells", "T1 sequence (Q96SW2 whole entry)": "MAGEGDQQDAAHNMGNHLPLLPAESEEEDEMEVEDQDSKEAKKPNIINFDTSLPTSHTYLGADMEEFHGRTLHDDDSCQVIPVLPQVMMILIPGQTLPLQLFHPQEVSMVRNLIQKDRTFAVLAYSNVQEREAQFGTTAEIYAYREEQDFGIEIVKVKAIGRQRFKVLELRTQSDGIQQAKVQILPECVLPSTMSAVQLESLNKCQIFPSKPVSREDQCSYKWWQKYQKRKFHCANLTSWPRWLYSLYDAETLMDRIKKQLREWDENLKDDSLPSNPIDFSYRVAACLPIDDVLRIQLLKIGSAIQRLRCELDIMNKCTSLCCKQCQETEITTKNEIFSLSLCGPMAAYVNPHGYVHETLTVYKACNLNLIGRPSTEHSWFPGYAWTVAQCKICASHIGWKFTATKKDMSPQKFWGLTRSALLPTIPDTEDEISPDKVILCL", "experiment": "NanoBRET TE Intracellular E3 Ligase Assay (CRBN target engagement)", "format": "cell-based", "settings": "dBET1 in presence vs absence of B1 (0, 25, 50 μM)", "description": "Crossbars and error bars indicate mean and standard deviation; values obtained in each experimental value are represented with a different shape;\nFor dBET1, a PROTAC with known low permeability, it was shown that B1 enhances its activity. The internalization of this PROTAC in the absence and presence of the cluster was assessed by its ability to bind to the Cereblon E3 Ligase by using a NanoBRET™ TE Intracellular E3 Ligase Assay. Enhanced uptake of dBET1 was observed (factor 2-3 decrease in IC50 value)."}, "[5]": {"tested_on": "mammalian cell", "experiment": "Mammalian cell survival", "format": "cell-based", "settings": "500 μM"}, "[6]": {"tested_on": "HeLa cells", "experiment": "Tm-Arg8 endosomal escape by confocal fluorescence microscopy", "format": "cell-based", "description": "Cells were incubated with 1 μM Tm-Arg8 and 0 (left picture) or 10 μM clusters diluted in HKR buffer for 1 hour, washed twice with HKR buffer, and imaged by confocal fluorescence microscopy; Images show TAMRA fluorescence (light gray) and the brightfield in the inset pictures; scale bars: 50 μm;\nThe potential of boron clusters to trigger the endosomal escape into live cells was first studied for oligocationic peptides as cargo. As a prototype, the octaarginine peptide labelled with carboxytetramethylrhodamine (Tm-Arg8) was selected, which at low concentrations (i.e., 1 μM) enters cells by endocytosis and remains trapped in the intracellular compartments. The cytosolic delivery of Tm-Arg8 was followed by confocal microscopy in the presence and absence of superchaotropic boron clusters (FIG. 4)."}}, "data": [{"compound": "8,8′-I2-(1,2-C2B9H10)2-3,3′-Co^− [CS6]", "values": [{"measurement": "use as transporter / active cluster for a bioactive molecule through a membrane", "setting": "[1]", "result": "successfully used as active clusters"}]}, {"compound": "NC[C@H]1O[C@H](O[C@H]2[C@H](O)[C@@H](O[C@H]3O[C@H](CO)[C@@H](O)[C@H](N)[C@H]3O)[C@H](N)C[C@@H]2N)[C@H](O)[C@@H](O)[C@@H]1O", "note": "[kanamycin A]", "values": [{"measurement": "viability at 3.5 µg/mL", "setting": "[2]; Escherichia coli, TOP10STRAIN, read-out: E. coli viability", "result": 60, "unit": "%"}, {"measurement": "antibiotic effectiveness in bacteria", "setting": "[2]; antibiotic transported by boron cluster", "result": "increased its effectiveness"}]}, {"compound": "(1,2-C2B9HO2-3,3′-Co^− [CS1]", "values": [{"measurement": "use as transporter / active cluster for a bioactive molecule through a membrane", "setting": "[1]", "result": "successfully used as active clusters"}]}, {"compound": "(1,7-C2B9H11)2-2,2′-Co^− [CS2]", "values": [{"measurement": "use as transporter / active cluster for a bioactive molecule through a membrane", "setting": "[1]", "result": "successfully used as active clusters"}]}, {"compound": "(8-I-1,2-C2B9H10)-(1′2′-C2B9H11)-3,3′-Co^− [CS4]", "values": [{"measurement": "use as transporter / active cluster for a bioactive molecule through a membrane", "setting": "[1]", "result": "successfully used as active clusters"}]}, {"compound": "B10Br10^2− [B4]", "values": [{"measurement": "transport of positive, zwitterionic and neutral cargo into vesicles", "setting": "[3]", "result": "same trends were reproduced in transport efficiency"}]}, {"compound": "B12Br11—O-n-C3H7^2− [B2]", "values": [{"measurement": "transport of heptaarginine across the lipid membrane of the vesicles", "setting": "[3]", "result": "little influence"}]}, {"compound": "B12Br12^2−", "values": [{"measurement": "decrease in IC50 value of dBET1", "setting": "[4]", "result": "2-3 factor"}, {"measurement": "transport of negatively charged cargo into vesicles", "setting": "[3]; cargo glutamate and albumin", "result": "with the exception of the negatively charged molecules (glutamate and albumin)"}, {"measurement": "transport of positive, zwitterionic and neutral cargo into vesicles", "setting": "[3]", "result": "transported all types of cargo (positive and neutral)"}, {"measurement": "E. coli viability", "setting": "[2]; kanamycin A 3.5 μg/ml in the presence of B1 500 μM", "result": "< 5", "unit": "%"}, {"measurement": "compatibility with mammalian cell survival", "setting": "[5]", "result": "compatible with mammalian cell survival"}]}, {"compound": "B12H11NBD^− [B3]", "values": [{"measurement": "transport of heptaarginine across the lipid membrane of the vesicles", "setting": "[3]", "result": "efficient transport"}, {"measurement": "Tm-Arg8 peptide endosomal escape (diffuse cytosolic fluorescence)", "setting": "[6]; 1 μM Tm-Arg8, 10 μM cluster, HKR buffer, 1 hour", "result": "excellent peptide endosomal escape"}, {"measurement": "peptide and cluster colocalization", "setting": "[6]; fluorescent cluster with Tm-Arg8", "result": "significant peptide and cluster colocalization"}]}, {"compound": "pyrene butyrate [reference compound]", "values": [{"measurement": "fluorescence response (transport) of zwitterionic or neutral analytes", "setting": "[3]; analytes acetylcholine, tryptophan, ampicillin, vecuronium and phalloidin, comparison activator", "result": "None of the selected, zwitterionic or neutral, analytes (acetylcholine, tryptophan, ampicillin, vecuronium and phalloidin) showed any fluorescence response"}]}]}
